Results published in patent publication US4861788A, “Antibacterial 1-normon-2-yl-heterocyclic compounds” (Beecham Group plc, priority 1983, dated 1989).
In brackets after ≈: the same amount, converted by molar mass. Where two headings read alike, the source gives them in different places.

Legend:
M. hyopneumoniae JF 435 = assay: MIC against Mycoplasma in vitro (Friis broth with agarose); assay type: cell-based; details: Mesomycoplasma hyopneumoniae, JF435, 144 h
M. hyopneumoniae Str. 11 = assay: as above; assay type: cell-based; details: Mesomycoplasma hyopneumoniae, 144 h; M. hyopneumoniae Str. 11; 6 days at 37° C; read-out: MIC
[1] = system: M. hyopneumoniae J2206/183^b; assay: as above; assay type: cell-based; details: Mesomycoplasma hyopneumoniae, 144 h; M. hyopneumoniae J2206/183^b; 6 days at 37° C; read-out: MIC
M. hyopneumoniae MS 16 = assay: as above; assay type: cell-based; details: Mesomycoplasma hyopneumoniae, MS16, 144 h; M. hyopneumoniae MS 16; 6 days at 37° C; read-out: MIC
M. hyopneumoniae TAM 6N = assay: as above; assay type: cell-based; details: Mesomycoplasma hyopneumoniae, TAM6N, 144 h
[2] = system: M. hyopneumoniae NCTC 101101; assay: as above; assay type: cell-based; details: Mesomycoplasma hyopneumoniae, NCTC101101, 144 h
M. hyorhinis ATCC 25021 = assay: as above; assay type: cell-based; details: Mesomycoplasma hyorhinis, ATCC25021, 144 h; M. hyorhinis ATCC 25021; 6 days at 37° C; read-out: MIC
[3] = system: M. bovigenitalium ATCC 14173; assay: as above; assay type: cell-based; details: 144 h; M. bovigenitalium ATCC 14173; 6 days at 37° C; read-out: MIC
M. dispar NCTC 10125 = assay: as above; assay type: cell-based; details: 144 h; M. dispar NCTC 10125; 6 days at 37° C; read-out: MIC
Bacillus subtilis 6633 = assay: MIC against human bacteria in vitro (nutrient agar, chocolated horse blood); assay type: cell-based; details: human; Bacillus subtilis 6633; 18 hours at 37° C; read-out: MIC
Method: (§1) The activity of the normonyl derivaties of the Examples against various bacteria which are important in diseases of humans, was assayed in vitro using serial dilutions in nurient agar with 5% chocolated horse blood.

[4] = system: Corynebacterium xerosis 9755; assay: as above; assay type: cell-based; details: human; Corynebacterium xerosis 9755; 18 hours at 37° C; read-out: MIC
Method: as §1

E. coli ESS = assay: as above; assay type: cell-based; details: Escherichia coli; human; E. coli ESS; 18 hours at 37° C; read-out: MIC
Method: as §1

E. coli NCTC 10418 [5] = assay: as above; assay type: cell-based; details: Escherichia coli, NCTC10418; human; E. coli NCTC 10418; 18 hours at 37° C; read-out: MIC
Method: as §1

[6] = system: Haemophilus influenzae Wy21; assay: as above; assay type: cell-based
Method: as §1

K. aerogenes A = assay: as above; assay type: cell-based; details: Klebsiella aerogenes; human; K. aerogenes A; 18 hours at 37° C; read-out: MIC
Method: as §1

P. mirabilis 889 = assay: as above; assay type: cell-based; details: Proteus mirabilis; human; P. mirabilis 889; 18 hours at 37° C; read-out: MIC
Method: as §1

[7] = system: Pasteurella multocida 1633; assay: as above; assay type: cell-based; details: human; Pasteurella multocida 1633; 18 hours at 37° C; read-out: MIC
Method: as §1

[8] = system: Ps. aeruginosa NCTC 10662; assay: as above; assay type: cell-based; details: Pseudomonas aeruginosa, NCTC10662; human; Ps. aeruginosa NCTC 10662; 18 hours at 37° C; read-out: MIC
Method: as §1

Staph. aureus Oxford [9] = assay: as above; assay type: cell-based; details: Staphylococcus aureus; human; Staph. aureus Oxford; 18 hours at 37° C; read-out: MIC
Method: as §1

Staph. aureus Russell = assay: as above; assay type: cell-based; details: Staphylococcus aureus; human; Staph. aureus Russell; 18 hours at 37° C; read-out: MIC
Method: as §1

Staph. aureus W2827 = assay: as above; assay type: cell-based; details: Staphylococcus aureus; human; Staph. aureus W2827; 18 hours at 37° C; read-out: MIC
Method: as §1

Strep. agalactiae 2788-B = assay: as above; assay type: cell-based; details: Streptococcus agalactiae; human; Strep. agalactiae 2788-B; 18 hours at 37° C; read-out: MIC
Method: as §1

Strep. faecalis I = assay: as above; assay type: cell-based; details: Enterococcus faecalis; human; Strep. faecalis I; 18 hours at 37° C; read-out: MIC
Method: as §1

[10] = system: Strep. pyogenes R80/421-A; assay: as above; assay type: cell-based; details: Streptococcus pyogenes; human; Strep. pyogenes R80/421-A; 18 hours at 37° C; read-out: MIC
Method: as §1

Strep. spp. 64/848-C = assay: as above; assay type: cell-based; details: human; Strep. spp. 64/848-C; 18 hours at 37° C; read-out: MIC
Method: as §1

E. coli NCTC 10418 [11] = assay: MIC against veterinary bacteria in vitro (Diagnostic Sensitivity Test Agar); details: Escherichia coli, NCTC10418, 18 h
Method: (§2) The activity of the normonyl derivatives of the Examples against various veterinarily important bacteria, was assayed in vitro using two-fold serial dilutions in Diagnostic Sensitivity Test Agar inoculated with 10^4 organisms.

E. coli E1 = assay: as above; details: Escherichia coli, E1, 18 h
Method: as §2

Bord. bronchiseptica B09 = assay: as above; details: Bordetella bronchiseptica, B09, 18 h
Method: as §2

Past. haemolytica PA5 = assay: as above; details: Mannheimia haemolytica, PA5, 18 h
Method: as §2

[12] = system: Staph. aureus B4 (pen. resistant); assay: as above; details: Staphylococcus aureus, 18 h
Method: as §2

Staph. aureus Oxford [13] = assay: as above; details: Staphylococcus aureus, 18 h
Method: as §2

Strep. uberis SPU1 = assay: as above; details: Streptococcus uberis, SPU1, 18 h
Method: as §2

Sarcina lutea 8340 = assay: MIC against human bacteria in vitro (nutrient agar, chocolated horse blood); assay type: cell-based; details: Micrococcus luteus; human; Sarcina lutea 8340; 18 hours at 37° C; read-out: MIC
Method: as §1

With `CC(=Cc1nnc(-c2cccc([N+](=O)[O-])c2)o1)CC1OCC(CC2OC2C(C)C(C)O)C(O)C1O` (stereo not shown) [Example 2, 2-m-Nitrophenyl-5-(1-normon-2-yl)-1,3,4-oxadiazole A] as the molecule, how does the MIC (M. hyopneumoniae JF 435) read?
The MIC was 0.05 mg/L (≈ 0.102 µM).

What about the MIC (M. hyopneumoniae Str. 11) of the same molecule?
Its MIC is 0.025 mg/L (≈ 0.0511 µM).

And the MIC [1]?
The MIC was 0.025 mg/L (≈ 0.0511 µM).

What about the MIC (M. hyopneumoniae MS 16) of the same molecule?
The MIC was 0.025 mg/L (≈ 0.0511 µM).

What about the MIC (M. hyopneumoniae TAM 6N) of the same molecule?
The MIC was 0.05 mg/L (≈ 0.102 µM).

And the MIC [2]?
Its MIC is 0.05 mg/L (≈ 0.102 µM).

And the MIC (M. hyorhinis ATCC 25021)?
The MIC was 0.025 mg/L (≈ 0.0511 µM).

What about the MIC [3] of the same molecule?
The MIC was 0.025 mg/L (≈ 0.0511 µM).

And the MIC (M. dispar NCTC 10125)?
Its MIC is less than 0.01 mg/L.

And the MIC (Bacillus subtilis 6633)?
The MIC was 4 mg/L (≈ 8.17 µM).

And the MIC [4]?
Its MIC is greater than 128 mg/L.

What about the MIC (E. coli ESS) of the same molecule?
Its MIC is 4 mg/L (≈ 8.17 µM).

And the MIC (E. coli NCTC 10418 [5])?
The MIC was greater than 128 mg/L.

What about the MIC ([6]; Haemophilus influenzae, WY21, 18 h) of the same molecule?
Its MIC is 0.5 mg/L (≈ 1.02 µM).

What about the MIC (K. aerogenes A) of the same molecule?
The MIC was greater than 128 mg/L.

And the MIC (P. mirabilis 889)?
Its MIC is greater than 128 mg/L.

And the MIC [7]?
Its MIC is 2 mg/L (≈ 4.09 µM).

And the MIC [8]?
The MIC was greater than 128 mg/L.

What about the MIC (Staph. aureus Oxford [9]) of the same molecule?
Its MIC is 16 mg/L (≈ 32.7 µM).

And the MIC (Staph. aureus Russell)?
Its MIC is 64 mg/L (≈ 131 µM).

And the MIC (Staph. aureus W2827)?
The MIC was 64 mg/L (≈ 131 µM).

And the MIC (Strep. agalactiae 2788-B)?
The MIC was 32 mg/L (≈ 65.4 µM).

And the MIC (Strep. faecalis I)?
Its MIC is greater than 128 mg/L.

What about the MIC [10] of the same molecule?
The MIC was 4 mg/L (≈ 8.17 µM).

And the MIC (Strep. spp. 64/848-C)?
Its MIC is 32 mg/L (≈ 65.4 µM).

What about the MIC (E. coli NCTC 10418 [11]) of the same molecule?
The MIC was greater than 80 mg/L.

And the MIC (E. coli E1)?
Its MIC is greater than 80 mg/L.

And the MIC (Bord. bronchiseptica B09)?
The MIC was 80 mg/L (≈ 163 µM).

And the MIC (Past. haemolytica PA5)?
The MIC was 10 mg/L (≈ 20.4 µM).

What about the MIC [12] of the same molecule?
The MIC was 5 mg/L (≈ 10.2 µM).

And the MIC (Staph. aureus Oxford [13])?
The MIC was 20 mg/L (≈ 40.9 µM).

And the MIC (Strep. uberis SPU1)?
The MIC was 2.5 mg/L (≈ 5.11 µM).

With `CC(=Cc1nnc(-c2cccnc2)o1)CC1OCC(CC2OC2C(C)C(C)O)C(O)C1O` (stereo not shown) [Example 5, 2-(1-Normon-2-yl)-5-(3-pyridyl)-1,3,4-oxadiazole A] as the molecule, how does the MIC (M. hyopneumoniae JF 435; M. hyopneumoniae JF 435, 6 days at 37° C, read-out: MIC) read?
The MIC was 2.5 mg/L (≈ 5.61 µM).

And the MIC (M. hyopneumoniae Str. 11)?
Its MIC is 1 mg/L (≈ 2.24 µM).

And the MIC [1]?
The MIC was 2.5 mg/L (≈ 5.61 µM).

And the MIC (M. hyopneumoniae MS 16)?
The MIC was 1 mg/L (≈ 2.24 µM).

And the MIC (M. hyopneumoniae TAM 6N; M. hyopneumoniae TAM 6N, 6 days at 37° C, read-out: MIC)?
The MIC was 2.5 mg/L (≈ 5.61 µM).

And the MIC ([2]; M. hyopneumoniae NCTC 101101, 6 days at 37° C, read-out: MIC)?
Its MIC is 2.5 mg/L (≈ 5.61 µM).

And the MIC (M. hyorhinis ATCC 25021)?
Its MIC is 1 mg/L (≈ 2.24 µM).

And the MIC [3]?
The MIC was 0.25 mg/L (≈ 0.561 µM).

And the MIC (M. dispar NCTC 10125)?
The MIC was 0.5 mg/L (≈ 1.12 µM).

And the MIC (Bacillus subtilis 6633)?
The MIC was 4 mg/L (≈ 8.98 µM).

And the MIC [4]?
The MIC was greater than 128 mg/L.

What about the MIC (E. coli ESS) of the same molecule?
The MIC was 4 mg/L (≈ 8.98 µM).

What about the MIC (E. coli NCTC 10418 [5]) of the same molecule?
The MIC was greater than 128 mg/L.

And the MIC ([6]; human, Haemophilus influenzae Wy21, 18 hours at 37° C, read-out: MIC)?
Its MIC is 0.5 mg/L (≈ 1.12 µM).

What about the MIC (K. aerogenes A) of the same molecule?
The MIC was greater than 128 mg/L.

What about the MIC (P. mirabilis 889) of the same molecule?
Its MIC is greater than 128 mg/L.

And the MIC [7]?
The MIC was 1 mg/L (≈ 2.24 µM).

And the MIC [8]?
The MIC was greater than 128 mg/L.

And the MIC (Sarcina lutea 8340)?
Its MIC is greater than 128 mg/L.

What about the MIC (Staph. aureus Oxford [9]) of the same molecule?
The MIC was 8 mg/L (≈ 18 µM).

What about the MIC (Staph. aureus Russell) of the same molecule?
Its MIC is 32 mg/L (≈ 71.8 µM).

And the MIC (Staph. aureus W2827)?
Its MIC is 32 mg/L (≈ 71.8 µM).

And the MIC (Strep. agalactiae 2788-B)?
Its MIC is 32 mg/L (≈ 71.8 µM).

What about the MIC (Strep. faecalis I) of the same molecule?
The MIC was greater than 128 mg/L.

And the MIC [10]?
Its MIC is 8 mg/L (≈ 18 µM).

And the MIC (Strep. spp. 64/848-C)?
The MIC was 32 mg/L (≈ 71.8 µM).

What about the MIC (E. coli NCTC 10418 [11]) of the same molecule?
The MIC was greater than 80 mg/L.

What about the MIC (E. coli E1) of the same molecule?
The MIC was greater than 80 mg/L.

And the MIC (Bord. bronchiseptica B09)?
The MIC was 20 mg/L (≈ 44.9 µM).

What about the MIC [12] of the same molecule?
The MIC was 10 mg/L (≈ 22.4 µM).

And the MIC (Staph. aureus Oxford [13])?
Its MIC is 20 mg/L (≈ 44.9 µM).

And the MIC (Strep. uberis SPU1)?
Its MIC is 2.5 mg/L (≈ 5.61 µM).
